In ChEMBL document CHEMBL5463722, “Data for DCP probe BI-5524” (2023):
The source made the active and inactive calls. No cut-off for these calls is given here.

Columns and labels:
[1] = molecular target: Mu-type opioid receptor (Homo sapiens) (UniProt P35372); test: mu (MOP) Eurofins-Cerep binding assay; design: ligand concentration 0.5 nM; settings: Compound concentration 10.0 uM
[2] = molecular target: 5-hydroxytryptamine receptor 2B (Homo sapiens) (UniProt P41595); test: 5-HT2B Eurofins-Cerep binding assay; settings: Compound concentration 10.0 uM
[3] = molecular target: Histamine H2 receptor (Homo sapiens) (UniProt P25021); test: H2 Eurofins-Cerep binding assay; design: ligand concentration 0.075 nM; settings: Compound concentration 10.0 uM
[4] = molecular target: Adenosine receptor A2a (Homo sapiens) (UniProt P29274); test: A2A Eurofins-Cerep binding assay; design: ligand concentration 6 nM
[5] = molecular target: GABA-A receptor; anion channel (Rattus norvegicus) (UniProt O09028+P15431+P18506+P18508+P19969+P20236+P23574+P23576+P28471+P28473+P30191+P62813+P63079+P63138+Q91ZM7+Q9ES14); test: Inhibitor of GABA/NS/R in the Eurofins SafetyScreen44 (BI) by Radioactive Assay (Cerep_60); assay type: protein-complex assay; settings: Compound concentration 10.0 uM
[6] = molecular target: Endothelin-1 receptor (Homo sapiens) (UniProt P25101); test: ETA Eurofins-Cerep binding assay; design: ligand concentration 0.03 nM; settings: Compound concentration 10.0 uM
Neutrophil elastase [7] = molecular target: T1, Neutrophil elastase (Homo sapiens, UniProt P08246); test: ELANE inhibitor assay (human). (Biochemical assay using purified commercial human ELANE and a fluorescent peptide substrate).
T1 sequence (P08246 whole entry): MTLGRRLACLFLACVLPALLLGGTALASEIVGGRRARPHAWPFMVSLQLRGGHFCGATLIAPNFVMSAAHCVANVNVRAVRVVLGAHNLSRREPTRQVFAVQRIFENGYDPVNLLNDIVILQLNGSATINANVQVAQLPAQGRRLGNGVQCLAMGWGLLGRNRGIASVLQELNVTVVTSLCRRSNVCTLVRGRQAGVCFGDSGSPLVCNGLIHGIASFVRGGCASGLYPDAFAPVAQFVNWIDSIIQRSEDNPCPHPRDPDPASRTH

[8] = molecular target: Vasopressin V1a receptor (Homo sapiens) (UniProt P37288); test: V1a Eurofins-Cerep binding assay; design: ligand concentration 0.3 nM; settings: Compound concentration 10.0 uM
[9] = molecular target: Neuropeptide Y receptor type 2 (Homo sapiens) (UniProt P49146); test: Y2 Eurofins-Cerep binding assay; design: ligand concentration 0.015 nM; settings: Compound concentration 10.0 uM
[10] = molecular target: Muscarinic acetylcholine receptor M3 (Homo sapiens) (UniProt P20309); test: M3 Eurofins-Cerep binding assay; design: ligand concentration 0.2 nM; settings: Compound concentration 10.0 uM
[11] = molecular target: 5-hydroxytryptamine receptor 2A (Homo sapiens) (UniProt P28223); test: Agonist activity in the Eurofins Cerep SafetyScreen44 (BI) against 5HT2AH_AGON by Scintillation counting (Cerep_471); settings: Compound concentration 10.0 uM
[12] = molecular target: Sodium-dependent dopamine transporter (Homo sapiens) (UniProt Q01959); test: dopamine transporter Eurofins-Cerep binding assay; settings: Compound concentration 10.0 uM
[13] = molecular target: Delta-type opioid receptor (Homo sapiens) (UniProt P41143); test: delta (DOP) Eurofins-Cerep binding assay; design: ligand concentration 0.5 nM; settings: Compound concentration 10.0 uM
Rattus norvegicus [14] = species on record: Rattus norvegicus; test: KV channel Eurofins-Cerep binding assay; design: ligand concentration 0.01 nM; settings: Compound concentration 10.0 uM
[15] = molecular target: Kappa-type opioid receptor (Rattus norvegicus) (UniProt P34975); test: Inhibitor of KAPPA/R in the Eurofins SafetyScreen44 (BI) by Radioactive Assay (Old_Cerep_24); settings: Compound concentration 10.0 uM
[16] = molecular target: 5-hydroxytryptamine receptor 3A (Homo sapiens) (UniProt P46098); test: 5-HT3 Eurofins-Cerep binding assay; design: ligand concentration 0.5 nM; settings: Compound concentration 10.0 uM
Rattus norvegicus [17] = species on record: Rattus norvegicus; test: Activity against BZD/CENTR/R in the Eurofins Cerep SafetyScreen44 (BI) by Radioactive Assay (Cerep_28); assay type: protein-complex assay
[18] = molecular target: 5-hydroxytryptamine receptor 1A (Homo sapiens) (UniProt P08908); test: 5-HT1A Eurofins-Cerep binding assay; design: ligand concentration 0.5 nM; settings: Compound concentration 10.0 uM
[19] = molecular target: D(2) dopamine receptor (Homo sapiens) (UniProt P14416); test: Agonist activity in the Eurofins Cerep SafetyScreen44 (BI) against D2SH_AGON by Scintillation counting (Cerep_1322); settings: Compound concentration 10.0 uM
[20] = molecular target: Adrenergic receptor alpha-1 (Rattus norvegicus) (UniProt P15823+P23944+P43140); test: Inhibitor of ALPHA1/NS/R in the Eurofins SafetyScreen44 (BI) by Radioactive Assay (Old_Cerep_5); assay type: protein assay
[21] = molecular target: Beta-2 adrenergic receptor (Homo sapiens) (UniProt P07550); test: beta 2 Eurofins-Cerep binding assay
Neutrophil elastase [22] = molecular target: Neutrophil elastase (Mus musculus, UniProt Q3UP87); test: ELANE inhibitor assay (mouse)
[23] = molecular target: Muscarinic acetylcholine receptor M1 (Homo sapiens) (UniProt P11229); test: M1 Eurofins-Cerep binding assay; design: ligand concentration 2 nM; settings: Compound concentration 10.0 uM
[24] = molecular target: T2, Cholecystokinin receptor type A (Homo sapiens) (UniProt P32238); test: CCK1 (CCKA) Eurofins-Cerep binding assay; design: ligand concentration 0.08 nM
T2 sequence (whole entry): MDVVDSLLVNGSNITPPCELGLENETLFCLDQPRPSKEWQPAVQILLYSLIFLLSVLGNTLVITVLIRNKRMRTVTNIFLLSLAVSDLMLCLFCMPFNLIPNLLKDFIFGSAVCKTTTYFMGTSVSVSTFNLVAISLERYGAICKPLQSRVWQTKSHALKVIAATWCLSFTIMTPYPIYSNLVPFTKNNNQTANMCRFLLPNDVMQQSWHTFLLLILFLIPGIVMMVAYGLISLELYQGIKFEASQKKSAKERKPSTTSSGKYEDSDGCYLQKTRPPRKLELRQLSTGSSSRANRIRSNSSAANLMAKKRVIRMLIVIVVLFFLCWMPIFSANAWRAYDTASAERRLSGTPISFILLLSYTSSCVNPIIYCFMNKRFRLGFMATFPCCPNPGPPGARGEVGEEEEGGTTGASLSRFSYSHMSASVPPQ

[25] = molecular target: Beta-1 adrenergic receptor (Homo sapiens) (UniProt P08588); test: beta 1 Eurofins-Cerep binding assay; design: ligand concentration 0.3 nM
Neutrophil elastase [26] = molecular target: T1, Neutrophil elastase; test: Inhibition of zymosan-stimulated ELANE activity in human plasma
[27] = molecular target: Sodium-dependent noradrenaline transporter (Homo sapiens) (UniProt P23975); test: norepinephrine transporter Eurofins-Cerep binding assay; design: ligand concentration 1 nM; settings: Compound concentration 10.0 uM
Caspase-9 (Homo sapiens) = Caspase-9 (Homo sapiens) (UniProt P55211); settings: Compound concentration 1.0 uM
Description: % Enzyme Activity of Caspase 9 in the Reaction Biology protease panel at 10.0 µM

[28] = molecular target: Glucocorticoid receptor (Homo sapiens) (UniProt P04150); test: GR Eurofins-Cerep binding assay; settings: Compound concentration 10.0 uM
[29] = molecular target: D(1A) dopamine receptor (Homo sapiens) (UniProt P21728); test: D1 Eurofins-Cerep binding assay; design: ligand concentration 0.3 nM; settings: Compound concentration 10.0 uM
[30] = molecular target: Histamine H1 receptor (Homo sapiens) (UniProt P35367); test: H1 Eurofins-Cerep binding assay; design: ligand concentration 1 nM; settings: Compound concentration 10.0 uM
[31] = molecular target: Prostaglandin E2 receptor EP4 subtype (Homo sapiens) (UniProt P35408); test: Agonist activity in the Eurofins SafetyScreen44 (BI) against EP4/H AG by Radioactive Assay (Old_Cerep_19); settings: Compound concentration 10.0 uM
[32] = molecular target: Muscarinic acetylcholine receptor M2 (Homo sapiens) (UniProt P08172); test: M2 Eurofins-Cerep binding assay; design: ligand concentration 2 nM; settings: Compound concentration 10.0 uM
[33] = molecular target: Angiotensin-converting enzyme (Homo sapiens) (UniProt P12821); test: Activity against ACE(HU_AMTCH400) in the Eurofins Cerep SafetyScreen44 (BI) by Photometry (Cerep_3441); settings: Compound concentration 10.0 uM
[34] = molecular target: 3',5'-cyclic-AMP phosphodiesterase 4D (Homo sapiens) (UniProt Q08499); test: Inhibitor of PDE4D2 in the Eurofins Cerep SafetyScreen44 (BI) by Scintillation counting (Cerep_4077); settings: Compound concentration 10.0 uM

Sequence of Beta-1 adrenergic receptor (Homo sapiens) (P08588 whole entry, looked up): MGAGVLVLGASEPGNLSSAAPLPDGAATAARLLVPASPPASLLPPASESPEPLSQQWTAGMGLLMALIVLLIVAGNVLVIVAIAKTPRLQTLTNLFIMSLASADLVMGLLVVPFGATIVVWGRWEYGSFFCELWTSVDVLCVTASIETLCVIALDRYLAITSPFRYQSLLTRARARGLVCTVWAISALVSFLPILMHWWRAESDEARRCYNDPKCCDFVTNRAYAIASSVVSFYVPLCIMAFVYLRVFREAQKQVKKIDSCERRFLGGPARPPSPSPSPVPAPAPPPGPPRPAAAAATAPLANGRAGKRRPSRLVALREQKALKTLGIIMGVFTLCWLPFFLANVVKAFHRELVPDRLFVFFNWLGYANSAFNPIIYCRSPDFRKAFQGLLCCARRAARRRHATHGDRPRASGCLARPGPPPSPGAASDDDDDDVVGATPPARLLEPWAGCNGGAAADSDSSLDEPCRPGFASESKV
Sequence of Adenosine receptor A2a (Homo sapiens) (P29274 whole entry): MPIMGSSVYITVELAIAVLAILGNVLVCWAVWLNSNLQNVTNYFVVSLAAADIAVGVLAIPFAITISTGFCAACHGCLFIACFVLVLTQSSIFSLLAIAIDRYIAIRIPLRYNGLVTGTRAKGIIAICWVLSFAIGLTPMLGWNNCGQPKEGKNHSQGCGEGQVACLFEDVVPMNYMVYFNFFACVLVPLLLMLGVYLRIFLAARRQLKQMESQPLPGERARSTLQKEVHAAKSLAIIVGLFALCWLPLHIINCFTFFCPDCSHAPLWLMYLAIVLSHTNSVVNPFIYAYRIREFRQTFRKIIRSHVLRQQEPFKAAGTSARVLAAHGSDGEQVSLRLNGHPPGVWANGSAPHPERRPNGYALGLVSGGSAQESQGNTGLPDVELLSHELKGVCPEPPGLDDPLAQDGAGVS
Sequence of Beta-2 adrenergic receptor (Homo sapiens) (P07550 whole entry, looked up): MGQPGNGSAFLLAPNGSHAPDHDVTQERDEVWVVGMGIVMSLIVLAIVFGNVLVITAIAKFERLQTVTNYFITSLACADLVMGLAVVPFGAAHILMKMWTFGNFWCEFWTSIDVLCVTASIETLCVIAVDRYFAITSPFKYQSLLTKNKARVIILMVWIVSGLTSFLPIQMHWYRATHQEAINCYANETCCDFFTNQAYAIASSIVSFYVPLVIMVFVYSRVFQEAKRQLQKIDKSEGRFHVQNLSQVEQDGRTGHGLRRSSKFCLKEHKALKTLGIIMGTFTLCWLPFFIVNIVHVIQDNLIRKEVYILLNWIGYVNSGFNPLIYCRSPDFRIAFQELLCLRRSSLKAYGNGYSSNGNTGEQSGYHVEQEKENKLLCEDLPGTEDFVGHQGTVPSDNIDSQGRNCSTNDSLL
Sequence of Endothelin-1 receptor (Homo sapiens) (P25101 whole entry): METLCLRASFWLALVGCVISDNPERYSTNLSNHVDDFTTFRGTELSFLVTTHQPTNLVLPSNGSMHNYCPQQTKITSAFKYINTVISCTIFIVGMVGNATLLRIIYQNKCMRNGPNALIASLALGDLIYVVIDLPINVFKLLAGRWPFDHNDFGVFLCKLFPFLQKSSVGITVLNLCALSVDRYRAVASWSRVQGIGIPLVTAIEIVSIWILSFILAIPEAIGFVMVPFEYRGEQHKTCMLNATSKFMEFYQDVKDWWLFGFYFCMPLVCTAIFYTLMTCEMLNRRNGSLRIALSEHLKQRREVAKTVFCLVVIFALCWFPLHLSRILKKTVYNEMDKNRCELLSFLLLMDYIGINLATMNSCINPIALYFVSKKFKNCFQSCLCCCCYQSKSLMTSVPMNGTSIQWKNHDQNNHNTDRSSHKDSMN
Sequence of Sodium-dependent noradrenaline transporter (Homo sapiens) (P23975 whole entry): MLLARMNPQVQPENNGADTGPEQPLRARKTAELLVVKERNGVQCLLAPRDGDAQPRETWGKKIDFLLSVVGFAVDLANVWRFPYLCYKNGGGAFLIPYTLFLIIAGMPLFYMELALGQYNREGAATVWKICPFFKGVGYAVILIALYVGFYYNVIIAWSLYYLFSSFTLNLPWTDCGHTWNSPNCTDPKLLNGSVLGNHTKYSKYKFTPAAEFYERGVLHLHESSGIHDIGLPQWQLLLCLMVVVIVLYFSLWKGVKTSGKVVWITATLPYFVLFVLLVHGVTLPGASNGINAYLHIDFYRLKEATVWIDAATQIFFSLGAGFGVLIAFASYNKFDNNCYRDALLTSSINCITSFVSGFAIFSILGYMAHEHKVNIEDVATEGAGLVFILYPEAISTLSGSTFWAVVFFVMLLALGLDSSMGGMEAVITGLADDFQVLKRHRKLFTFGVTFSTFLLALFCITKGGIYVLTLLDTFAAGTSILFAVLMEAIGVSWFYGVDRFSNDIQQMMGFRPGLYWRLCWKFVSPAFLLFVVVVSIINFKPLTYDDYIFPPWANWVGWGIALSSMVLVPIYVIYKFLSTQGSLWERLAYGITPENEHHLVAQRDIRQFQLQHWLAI
Sequence of Histamine H2 receptor (Homo sapiens) (P25021 whole entry): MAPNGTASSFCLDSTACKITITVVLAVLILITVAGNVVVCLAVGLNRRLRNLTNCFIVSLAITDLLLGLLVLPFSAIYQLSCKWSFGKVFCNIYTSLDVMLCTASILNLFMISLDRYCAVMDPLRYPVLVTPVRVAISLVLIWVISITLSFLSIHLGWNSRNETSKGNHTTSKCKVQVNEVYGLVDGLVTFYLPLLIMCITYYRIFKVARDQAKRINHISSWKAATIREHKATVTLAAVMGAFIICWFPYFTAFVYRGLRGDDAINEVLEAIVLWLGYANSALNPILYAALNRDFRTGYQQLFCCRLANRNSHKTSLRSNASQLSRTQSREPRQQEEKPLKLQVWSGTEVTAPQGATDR
Sequence of Histamine H1 receptor (Homo sapiens) (P35367 whole entry): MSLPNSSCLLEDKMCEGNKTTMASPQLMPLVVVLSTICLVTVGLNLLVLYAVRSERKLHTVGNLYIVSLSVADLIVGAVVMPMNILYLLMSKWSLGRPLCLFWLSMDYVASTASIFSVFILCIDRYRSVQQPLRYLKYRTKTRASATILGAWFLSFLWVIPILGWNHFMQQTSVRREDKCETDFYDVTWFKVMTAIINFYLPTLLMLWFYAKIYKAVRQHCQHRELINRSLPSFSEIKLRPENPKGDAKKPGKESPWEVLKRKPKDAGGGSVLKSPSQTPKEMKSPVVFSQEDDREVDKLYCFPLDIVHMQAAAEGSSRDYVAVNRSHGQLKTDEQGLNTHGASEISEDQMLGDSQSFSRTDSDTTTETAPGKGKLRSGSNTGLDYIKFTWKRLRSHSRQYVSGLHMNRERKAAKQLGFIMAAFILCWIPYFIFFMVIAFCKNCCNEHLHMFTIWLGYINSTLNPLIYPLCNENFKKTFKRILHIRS
Sequence of Sodium-dependent dopamine transporter (Homo sapiens) (Q01959 whole entry): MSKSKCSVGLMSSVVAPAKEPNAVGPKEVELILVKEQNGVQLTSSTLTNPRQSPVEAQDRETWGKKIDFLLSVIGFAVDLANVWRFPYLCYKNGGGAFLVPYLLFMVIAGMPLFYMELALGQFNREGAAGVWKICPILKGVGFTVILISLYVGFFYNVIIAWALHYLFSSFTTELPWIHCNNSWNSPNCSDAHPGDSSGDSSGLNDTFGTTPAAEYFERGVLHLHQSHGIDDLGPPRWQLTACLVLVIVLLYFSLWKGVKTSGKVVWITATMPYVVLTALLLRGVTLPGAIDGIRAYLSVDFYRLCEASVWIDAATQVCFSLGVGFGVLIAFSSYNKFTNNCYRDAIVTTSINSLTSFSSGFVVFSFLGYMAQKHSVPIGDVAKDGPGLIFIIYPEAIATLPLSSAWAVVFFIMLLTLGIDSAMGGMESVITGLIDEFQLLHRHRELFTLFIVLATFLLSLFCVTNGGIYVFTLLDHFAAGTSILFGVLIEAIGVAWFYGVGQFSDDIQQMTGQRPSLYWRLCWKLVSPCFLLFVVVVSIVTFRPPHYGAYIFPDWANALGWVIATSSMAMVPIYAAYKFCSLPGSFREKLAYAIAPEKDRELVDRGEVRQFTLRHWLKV
Sequence of Vasopressin V1a receptor (Homo sapiens) (P37288 whole entry, looked up): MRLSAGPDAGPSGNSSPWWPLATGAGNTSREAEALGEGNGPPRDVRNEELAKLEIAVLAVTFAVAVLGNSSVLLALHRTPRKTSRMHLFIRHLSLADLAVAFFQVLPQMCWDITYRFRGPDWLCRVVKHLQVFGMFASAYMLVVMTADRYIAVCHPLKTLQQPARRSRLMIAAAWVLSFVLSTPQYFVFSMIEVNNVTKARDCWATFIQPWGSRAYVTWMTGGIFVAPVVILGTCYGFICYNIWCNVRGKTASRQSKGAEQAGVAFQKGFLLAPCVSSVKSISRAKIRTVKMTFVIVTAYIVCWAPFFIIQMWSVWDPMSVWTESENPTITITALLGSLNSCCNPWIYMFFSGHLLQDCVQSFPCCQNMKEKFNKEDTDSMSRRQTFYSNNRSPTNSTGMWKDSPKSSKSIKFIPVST
Sequence of 5-hydroxytryptamine receptor 2A (Homo sapiens) (P28223 whole entry): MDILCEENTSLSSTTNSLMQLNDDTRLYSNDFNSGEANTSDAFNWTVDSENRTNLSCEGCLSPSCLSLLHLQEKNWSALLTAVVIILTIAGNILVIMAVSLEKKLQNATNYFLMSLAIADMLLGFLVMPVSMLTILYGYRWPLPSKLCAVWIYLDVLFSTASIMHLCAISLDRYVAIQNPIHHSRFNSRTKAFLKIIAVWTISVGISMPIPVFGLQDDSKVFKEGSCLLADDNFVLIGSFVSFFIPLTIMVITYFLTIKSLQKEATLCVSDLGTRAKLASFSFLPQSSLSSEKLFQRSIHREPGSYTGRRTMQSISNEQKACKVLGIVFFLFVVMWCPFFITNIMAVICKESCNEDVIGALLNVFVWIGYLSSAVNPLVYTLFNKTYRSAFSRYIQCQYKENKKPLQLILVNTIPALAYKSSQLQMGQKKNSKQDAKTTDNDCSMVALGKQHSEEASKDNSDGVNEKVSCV
Sequence of Neutrophil elastase (Mus musculus, UniProt Q3UP87) (Q3UP87 whole entry): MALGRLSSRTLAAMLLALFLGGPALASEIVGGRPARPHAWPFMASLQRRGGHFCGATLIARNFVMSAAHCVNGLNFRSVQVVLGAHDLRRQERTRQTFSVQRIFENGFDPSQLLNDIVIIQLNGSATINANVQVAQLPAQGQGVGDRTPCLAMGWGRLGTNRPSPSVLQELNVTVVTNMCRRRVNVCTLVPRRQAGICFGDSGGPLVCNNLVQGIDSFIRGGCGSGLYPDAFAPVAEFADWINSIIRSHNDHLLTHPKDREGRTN

SMILES	residual activity [1] [%]	residual activity [2] [%]	residual activity [3] [%]	residual activity ([4]; Compound concentration 10.0 uM) [%]	residual activity [6] [%]	IC50 (Neutrophil elastase [7])	residual activity [8] [%]	residual activity [10] [%]	residual activity [11] [%]	residual activity [12] [%]	residual activity [13] [%]	residual activity (Rattus norvegicus [14]) [%]	residual activity [16] [%]	residual activity (Rattus norvegicus [17]; Compound concentration 10.0 uM) [%]	residual activity [18] [%]	residual activity [19] [%]	residual activity ([21]; Compound concentration 10.0 uM) [%]	residual activity [23] [%]	residual activity ([24]; Compound concentration 10.0 uM) [%]	residual activity ([25]; Compound concentration 10.0 uM) [%]	also measured
CC(C)(O)CNC(=O)N1C(=O)N(c2cccc(C(F)(F)F)c2)C2=C(C(=O)CC2)[C@H]1c1ccc(C#N)cc1	82	130	114	100	99	0.5 nM (active)	102	84	69	110	101	102	108	119	72	89	87	103	89	100	residual activity ([4]; Compound concentration 30.0 uM): 83%; residual activity [5]: 103%; residual activity [9]: 113%; residual activity [15]: 65%; residual activity (Rattus norvegicus [17]; Compound concentration 30.0 uM): 116%; residual activity ([20]; Compound concentration 10.0 uM): 97%; residual activity ([20]; Compound concentration 30.0 uM): 103%; residual activity ([21]; Compound concentration 30.0 uM): 92%; IC50 (Neutrophil elastase [22]): 12 nM (active); residual activity ([24]; Compound concentration 30.0 uM): 89%; residual activity ([25]; Compound concentration 30.0 uM): 100%; IC50 (Neutrophil elastase [26]): 1.2 nM (active); residual activity [27]: 98%; % Enzyme Activity (relative to DMSO controls, average n=2) (Caspase-9 (Homo sapiens)): 98.8%; residual activity [28]: 107%; residual activity [29]: 96%; residual activity [30]: 108%; residual activity [31]: 77%; residual activity [32]: 121%
CC(C)(O)CNC(=O)N1C(=O)N(c2cccc(C(F)(F)F)c2)C2=C(C(=O)CC2)[C@@H]1c1ccc(C#N)cc1	104	97	105	109	95	41 nM (not active)	99	95	111	98	100	101	81	101	91	99	101	114	97	89	residual activity [33]: 98%; residual activity [34]: 114%; IC50 (Neutrophil elastase [26]): 492 nM (not active); residual activity [27]: 95%; % Enzyme Activity (relative to DMSO controls, average n=2) (Caspase-9 (Homo sapiens)): 92.6%; residual activity [28]: 96%; residual activity [29]: 100%; residual activity [30]: 101%; residual activity [32]: 103%
